The values that follow are results of earlier work, collected in paper PMC10797624, “Multitracer Approach to Understanding the Complexity of Reactive Astrogliosis in Alzheimer’s Brains” (ACS Chemical Neuroscience, 2023).

The test system of series [1] is [^3H]-BU99008 binding sites. Set-up: method as in PMID 33888872. Conditions: L-deprenyl vs [^3H]-BU99008.
Series [2] concerns MAO-B. Set-up: method as in PMID 32646880. Particulars: small brain section autoradiography.

As to `C#CCN(C)[C@H](C)Cc1ccccc1` [L-deprenyl], in series [1], the “binding sites and affinities vs [^3H]-BU99008” value is “multiple binding sites with pico- and micromolar affinities”. Regarding `NCCNC(=O)c1ccc(Cl)cn1` [lazabemide], in series [2], the “displacement of [^18F]-SMBT-1 binding” value is reported as “fully displaced”.
